Data published in ChEMBL document CHEMBL1201862, “PubChem BioAssay data set” (2004).
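Test compounds were applied to cells in 96-well plates for 48 hours at 5 doses. At the GI50, growth is halved.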 Activity calls are given as the source filed them. Cut-off read from the data, not from the text of the source: active = GI50 up to about 1.1 µM and inactive = higher.

Experiments:
Assay in all cases: NCI anticancer screen, dose series, 48 h
786-0 = tested on: 786-0
A498 = tested on: A498
A549 = tested on: A549
ACHN = tested on: ACHN
BT-549 = tested on: BT-549
CAKI-1 = tested on: CAKI-1
CCRF-CEM = tested on: CCRF-CEM
COLO 205 = tested on: COLO 205
DU-145 = tested on: DU-145
EKVX = tested on: EKVX
HCC 2998 = tested on: HCC 2998
HCT-116 = tested on: HCT-116
HCT-15 = tested on: HCT-15
HL-60 = tested on: HL-60
HOP-62 = tested on: HOP-62
HOP-92 = tested on: HOP-92
HT-29 = tested on: HT-29
Hs-578T = tested on: Hs-578T
IGROV-1 = tested on: IGROV-1
KM12 = tested on: KM12
LOX IMVI = tested on: LOX IMVI
M14 = tested on: M14
MCF7 = tested on: MCF7
MDA-MB-231 = tested on: MDA-MB-231
MDA-MB-435 = tested on: MDA-MB-435
MDA-N = tested on: MDA-N
MOLT-4 = tested on: MOLT-4
Malme-3M = tested on: Malme-3M
NCI-H226 = tested on: NCI-H226
NCI-H23 = tested on: NCI-H23
NCI-H460 = tested on: NCI-H460
NCI-H522 = tested on: NCI-H522
NCI/ADR-RES = tested on: NCI/ADR-RES
OVCAR-3 = tested on: OVCAR-3
OVCAR-4 = tested on: OVCAR-4
OVCAR-5 = tested on: OVCAR-5
OVCAR-8 = tested on: OVCAR-8
PC-3 = tested on: PC-3
SF-268 = tested on: SF-268
SF-295 = tested on: SF-295
SK-MEL-28 = tested on: SK-MEL-28
SK-MEL-2 = tested on: SK-MEL-2
SK-MEL-5 = tested on: SK-MEL-5
SN12C = tested on: SN12C
SNB-19 = tested on: SNB-19
SNB-75 = tested on: SNB-75
SW-620 = tested on: SW-620
T47D = tested on: T47D
TK-10 = tested on: TK-10
U-251 = tested on: U-251
UACC-257 = tested on: UACC-257
UACC-62 = tested on: UACC-62
UO-31 = tested on: UO-31

Q: How did the GI50 (786-0) turn out when `O=C(CC(=O)N1N=C(N2CCCCC2)CC1c1ccccc1)Nc1ccc(Cl)cc1` (stereo not drawn) was run?
A: The GI50 was > 100 µM (inactive).

Q: And the GI50 (A498)?
A: The GI50 was > 100 µM (inactive).

Q: And the GI50 (A549)?
A: Its GI50 is > 100 µM (inactive).

Q: And the GI50 (ACHN)?
A: Its GI50 is > 100 µM (inactive).

Q: What about the GI50 (BT-549) of the same molecule?
A: The GI50 was > 100 µM (inactive).

Q: And the GI50 (CAKI-1)?
A: Its GI50 is > 100 µM (inactive).

Q: What about the GI50 (CCRF-CEM) of the same molecule?
A: The GI50 was > 100 µM (inactive).

Q: And the GI50 (COLO 205)?
A: The GI50 was > 100 µM (inactive).

Q: And the GI50 (DU-145)?
A: Its GI50 is > 100 µM (inactive).

Q: What about the GI50 (EKVX) of the same molecule?
A: Its GI50 is > 100 µM (inactive).

Q: And the GI50 (HCC 2998)?
A: Its GI50 is > 100 µM (inactive).

Q: What about the GI50 (HCT-116) of the same molecule?
A: Its GI50 is > 100 µM (inactive).

Q: And the GI50 (HCT-15)?
A: The GI50 was > 100 µM.

Q: What about the GI50 (HL-60) of the same molecule?
A: Its GI50 is > 100 µM (inactive).

Q: And the GI50 (HOP-62)?
A: Its GI50 is > 100 µM (inactive).

Q: And the GI50 (HOP-92)?
A: Its GI50 is > 100 µM (inactive).

Q: What about the GI50 (HT-29) of the same molecule?
A: Its GI50 is > 100 µM (inactive).

Q: And the GI50 (Hs-578T)?
A: The GI50 was > 100 µM (inactive).

Q: And the GI50 (IGROV-1)?
A: Its GI50 is > 100 µM (inactive).

Q: And the GI50 (KM12)?
A: The GI50 was > 100 µM (inactive).

Q: And the GI50 (LOX IMVI)?
A: The GI50 was > 100 µM (inactive).

Q: And the GI50 (M14)?
A: Its GI50 is > 100 µM (inactive).

Q: What about the GI50 (MCF7) of the same molecule?
A: The GI50 was > 100 µM (inactive).

Q: What about the GI50 (MDA-MB-231) of the same molecule?
A: Its GI50 is > 100 µM (inactive).

Q: And the GI50 (MDA-MB-435)?
A: Its GI50 is > 100 µM (inactive).

Q: What about the GI50 (MDA-N) of the same molecule?
A: The GI50 was > 100 µM (inactive).

Q: What about the GI50 (MOLT-4) of the same molecule?
A: Its GI50 is > 100 µM (inactive).

Q: What about the GI50 (Malme-3M) of the same molecule?
A: Its GI50 is > 100 µM (inactive).

Q: What about the GI50 (NCI-H226) of the same molecule?
A: The GI50 was > 100 µM (inactive).

Q: What about the GI50 (NCI-H23) of the same molecule?
A: Its GI50 is > 100 µM (inactive).

Q: What about the GI50 (NCI-H460) of the same molecule?
A: Its GI50 is > 100 µM (inactive).

Q: What about the GI50 (NCI-H522) of the same molecule?
A: Its GI50 is > 100 µM (inactive).

Q: What about the GI50 (NCI/ADR-RES) of the same molecule?
A: The GI50 was > 100 µM (inactive).

Q: And the GI50 (OVCAR-3)?
A: The GI50 was > 100 µM (inactive).

Q: What about the GI50 (OVCAR-4) of the same molecule?
A: The GI50 was > 100 µM (inactive).

Q: What about the GI50 (OVCAR-5) of the same molecule?
A: Its GI50 is > 100 µM (inactive).

Q: What about the GI50 (OVCAR-8) of the same molecule?
A: Its GI50 is > 100 µM (inactive).

Q: And the GI50 (PC-3)?
A: The GI50 was > 100 µM (inactive).

Q: And the GI50 (SF-268)?
A: Its GI50 is > 100 µM (inactive).

Q: And the GI50 (SF-295)?
A: Its GI50 is > 100 µM (inactive).

Q: And the GI50 (SK-MEL-28)?
A: Its GI50 is > 100 µM (inactive).

Q: What about the GI50 (SK-MEL-2) of the same molecule?
A: Its GI50 is > 100 µM (inactive).

Q: What about the GI50 (SK-MEL-5) of the same molecule?
A: Its GI50 is > 100 µM (inactive).

Q: And the GI50 (SN12C)?
A: Its GI50 is > 100 µM (inactive).

Q: What about the GI50 (SNB-19) of the same molecule?
A: Its GI50 is > 100 µM (inactive).

Q: What about the GI50 (SNB-75) of the same molecule?
A: The GI50 was > 100 µM (inactive).

Q: What about the GI50 (SW-620) of the same molecule?
A: Its GI50 is > 100 µM (inactive).

Q: What about the GI50 (T47D) of the same molecule?
A: Its GI50 is > 100 µM (inactive).

Q: And the GI50 (TK-10)?
A: The GI50 was > 100 µM (inactive).

Q: What about the GI50 (U-251) of the same molecule?
A: The GI50 was > 100 µM (inactive).

Q: And the GI50 (UACC-257)?
A: The GI50 was > 100 µM (inactive).

Q: What about the GI50 (UACC-62) of the same molecule?
A: The GI50 was > 100 µM (inactive).

Q: And the GI50 (UO-31)?
A: Its GI50 is > 100 µM (inactive).
